Consider 15 compounds from PubChem BioAssay (NCI).

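In this assay, cells in 96-well plates receive the compound at five concentrations for 48 hours. Endpoints are linearly interpolated between the surrounding concentrations. The concentration for 50% growth inhibition is given as GI50. At the TGI there is no net growth.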

Common to all, as to experiment: inhibition of tumour cell growth, NCI panel, 48 h
The test system of assay [1] is KM12 colon.
Assay [2] deals with A549 NSCLC.
For assay [3], the system named is MOLT-4 leukemia.
Assay [4] relates to UACC-62 melanoma.
The subject of assay [5] is MCF7 breast.
Assay [6] deals with RPMI-8226 leukemia.
Assay [7] deals with OVCAR-8 ovarian.
Assay [8] concerns SN12C renal.
The subject of assay [9] is SR leukemia.

On to `CCCCCCCCCCCCCCCCNCC(O)CN` (centres undefined), for which the TGI in assay [1] is 3.66 µM; in assay [2] it was 10.2 µM; in assay [3], 4.87 µM; in [4] it was 17 µM; in assay [5] it was 6.47 µM; in assay [6], 4.52 µM. In addition, the TGI in [7] came to 12.3 µM; in assay [8] it was 12.9 µM.

`Nc1ncnc2c1sc(=S)n2-c1ccccc1`: the TGI in [1], in assay [2], in assay [3], in [4], in assay [6] and in [7] was above 100 µM each time. Besides, the TGI in assay [8] and in [9] was above 100 µM in each case.

On to `N#C/C(=C/n1c(=S)[nH]c2ccccc21)C(N)=O`, for which the TGI in [1], in [2], in [3], in [4], in assay [5] and in assay [6] was above 100 µM in each case. The TGI in assay [7], in assay [8] and in [9] was above 100 µM in each case.

Regarding `COC(=O)CCCC1(CCCC(=O)OC)CCCCCCCCC(CCCC(=O)OC)(CCCC(=O)OC)C(=O)C1=O`, the TGI is above 100 µM in assay [1]; 29.9 µM in [2]; 39.5 µM in assay [4]; above 100 µM in assay [5]; above 100 µM in assay [6]; above 100 µM in assay [7]. The TGI in assay [8] is above 100 µM; in assay [9], 85.5 µM.

For `C[N+](C)=c1ccc2nc3c(ccc4ccccc43)oc-2c1`, the TGI in [1] was 32.2 µM; in assay [2] it was 37.1 µM; in [3], 20.4 µM; in [4], 16.3 µM; in assay [6], above 64.7 µM; in assay [7], 26 µM. Besides, the TGI in assay [8] was 31.8 µM; in assay [9], above 100 µM.

As for `C[C@]12C(=O)C=CCC1=CC[C@@H]1[C@@H]2[C@H]2CC3(O)C(=O)O[C@@]4(C)[C@H]5C[C@@]6(C)[C@@H]7[C@@]2(O)[C@]1(OC[C@H]6C(=O)O5)O[C@]734` (some centres undefined), the TGI was above 100 µM in assay [1]; above 100 µM in assay [2]; 90.3 µM in [3]; above 100 µM in assay [4]; above 100 µM in [5]; above 100 µM in assay [6]. For the same compound, the figures for the TGI in [7], in [8] and in assay [9] were above 100 µM, above 100 µM and 75.2 µM, respectively.

On to `NC(=O)COc1c(Br)cc(Br)cc1Br`, for which the TGI in assay [1], in [2], in assay [3], in assay [4], in [6] and in assay [7] was above 100 µM in each case. Further, the TGI in assay [8] and in assay [9] was above 100 µM in each case.

For the compound `CC1(C)Oc2ccc3c(=O)cc(-c4cccs4)oc3c2C1C(=O)O` (centres undefined), the TGI in assay [2], in assay [3], in [5], in assay [7], in assay [8] and in assay [9] was above 100 µM each time.

As to `O=S(c1ccccc1)C1CC2CC3(CCC21O)OCCO3` (centres undefined), the TGI in [1], in assay [2], in assay [3], in assay [4], in [5] and in assay [6] was above 100 µM each time. In addition, the TGI in [7] and in assay [9] was above 100 µM each time.

Turning to `COc1ccc(C2S/C(=C\c3cccc(OC)c3)C(=O)N2NC(=O)Cc2ccccc2)cc1` (centres undefined), the TGI in assay [1], in [2], in assay [3], in [4], in [6] and in assay [7] was above 100 µM in each case. Also, the TGI in assay [8] and in assay [9] was above 100 µM each time.

For the compound `C/C=C/c1cc2c(c(=O)o1)C(=O)[C@@H](O)[C@H](C)O2`, the TGI is 31 µM in assay [1]; 34.3 µM in assay [2]; 49.3 µM in assay [3]; 34.1 µM in [4]; 14.8 µM in [5]; 34.5 µM in assay [6]. Further, the TGI in assay [7] came out at 35 µM; in [8], 29.2 µM.

For the compound `C=CCNc1nc(O)c(/C=C2\C=Nc3ncccc32)s1`, the GI50 in assay [1] was 2.51 µM; in [2], 7.08 µM; in assay [3], 2.64 µM; in assay [4], 1.69 µM; in [5], 2.2 µM; in assay [6], 2.26 µM. Moreover, the figures for the GI50 in [7], in assay [8] and in assay [9] were 3.41 µM, 2.1 µM and 0.408 µM, respectively. For the same compound, the TGI in assay [1] is 8.23 µM; in assay [2], 19.4 µM; in [3], 7.95 µM; in assay [4], 4.22 µM; in assay [5] it was above 100 µM; in assay [6] it was 6.71 µM. Further, the TGI in [7] is 10.3 µM; in assay [8], 5.52 µM; in [9], 88.3 µM.

For `O=C(NC12CC3CC(CC(C3)C1)C2)C(=O)c1c[nH]c2ccc(Br)cc12`, the TGI was 41.7 µM in [1]; 42.4 µM in [2]; 44.2 µM in assay [3]; above 100 µM in [4]; above 100 µM in [6]; 87.3 µM in assay [7]. Moreover, the TGI in assay [8] stood at 61.2 µM; in assay [9], 29.6 µM.

Turning to `O=S(=O)(c1ccccc1)c1nccs1`, the TGI in assay [1], in assay [2], in assay [3], in assay [4], in assay [6] and in assay [7] was above 100 µM each time. In addition, the TGI in assay [8] and in assay [9] was above 100 µM throughout.

`CCOP(=O)(OCC)/C(C#N)=C\c1ccsc1`: the TGI in assay [1], in assay [2], in assay [3], in [4], in assay [6] and in [7] was above 100 µM each time. In [8], this compound gave a TGI above 100 µM.
